From PubChem BioAssay AID1918948 (Molecular Pharmacology Branch, DTP, NCI, 2023)

System: K-562 leukemia growth, % test/control
Assay: Anticancer human tumor K-562 cell line growth inhibition;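 note: spheroids exposed to compounds for 7 days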;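 for viability, T/C: 100% = DMSO vehicle wells and lower values mean fewer viable cells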
Details: spheroids with HUVEC and MSC; for IC50: curve of first compound; for viability, T/C: stronger effect = lower value
Excerpt: Multicellular complex tumor spheroid response to LSD1 Inhibitor Iadademstat in combination with a variety of drugs and investigational agents in selected tumor cell lines
The current study was undertaken to assess response to LSD1 inhibitors in combination with standard-of-care drugs and investigational agents in solid tumor complex spheroid models as well as in the K-562 leukemia. Complex spheroids include a stromal component modeled by human endothelial cells (HUVEC) and fibroblasts modeled by human mesenchymal stem cells (MSCs). The concentration ranges selected for each drug and investigational agent were based upon clinically achievable concentrations if the clinical Cmax of the agent was known.
Compounds. The drugs and investigational agents used in this study are listed on Table 1. All of the agents used, including staurosporine (NSC755774) and gemcitabine (NSC613327), were obtained from the Developmental Therapeutics Program, NCI. FDA-approved anticancer drugs are available from the NCI at http://dtp.nci.nih.gov/branches/dscb/oncology_drugset_explanation.html. Drugs and investigational agents were >95% pure by proton nuclear magnetic resonance (NMR) and liquid chromatography/mass spectrometry (LC/MS). Stock solutions were prepared at 400x in DMSO, stored at -70 degrees C, and diluted in fresh medium prior to their use. The final concentration of DMSO in cell culture wells never exceeded 0.25% (v/v). The FDA-approved anticancer drug set is available from the Developmental Therapeutics Program at https://dtp.cancer.gov/organization/dscb/obtaining/available_plates.htm. All drugs and investigational agents were tested over a range starting from a high concentration at or near the clinical Cmax and decreasing in half-log increments. If the clinical Cmax for an agent had not been determined, the highest concentration tested was 10 microM.
Cell Lines. The patient-derived cancer cell (PDC) lines: 292921-168-R-J2-PDC, K24384-001-R-PDC, and 521955-158-R2-J5-PDC pancreatic carcinomas, 556581-035-R-J1 ovarian carcinoma, 324938-238-R-J1-PDC, 855422-203-R-J1-PDC and 883617-216-R-J1-PDC urothelial bladder carcinomas, 743489-274-T-PDC renal cell carcinoma, 138582-R-J1 Merkel cell tumor, K60290-347-R-J1 and K57222-313-R-J1-PDC glioblastomas, 653999-131-R-J2-PDC, LG0703-F948-PDC, and 349418-098-R-PDC non-small cell lung carcinomas, 885512-296-R-J2-PDC, 171881-019-R-J1-PDC breast carcinomas and 186277-243-T-J2-PDC and 233499-124-R-J2-PDC colon carcinomas were obtained from the NCI Patient-Derived Models Repository (PDMR, https://pdmr.cancer.gov). The established cell lines NCI/ADR-RES (RRID:CVCL_14520 and OVCAR-5 (RRID:CVCL_1628) ovarian carcinomas, 786-O (RRID:CVCL_1051) and A498 (RRID:CVCL_A498) renal cell carcinoma, NCI-H211 (ATCC, cat. CRL-5824; RRID:CVCL_1529), NCI-H196 (ATCC, cat. CRL-5823, RRID:CVCL_1509), SW 1271 (ATCC, cat. CRL-2177, RRID:CVCL_1716) and NCI-H1876 (ATCC, cat. CRL-5902, RRID:CVCL_1503) small cell lung carcinomas, MDA-MB-231 (RRID:CVCL_0062) and MDA-MB-468 (RRID:CVCL_0419)breast carcinomas (10-12). Pooled donor human umbilical vein endothelial cells (HUVEC, Lonza, cat. CC-2519) and human mesenchymal stem cells (hMSC, Lonza, cat. PT-2501) were purchased from Lonza (Walkersville, MD).
Cell Culture. All cells were maintained in an incubator at 37 degrees C and 5% CO2 with 95% humidity. The PDC lines were cultured according to standard operating procedures established by the NCI PDMR (https://pdmr.cancer.gov). Briefly all PDCs were thawed and cultured in Matrigel-coated flasks prepared with a working solution of 1X Ham's F-12 nutrient mix, without supplementation (Invitrogen, Waltham, MA, cat. 11765054), 100 U/mL penicillin-streptomycin (Invitrogen, cat. 15140122), and 2.5% Matrigel (Corning Inc., Corning, NY, cat. 354248) for the first three passages. […]

With COc1cc(C2c3cc4c(cc3C(OC3OC5COC(C)OC5C(O)C3O)C3COC(=O)C23)OCO4)cc(OC)c1O (stereo not given) + NC1CC1c1ccc(-c2cccc(O)c2)cc1 as the molecule, how does the IC50 (second compound 0.1 µM) read?
The IC50 was 32.3 nM.

What about the IC50 (second compound 0.316 µM) of the same molecule?
Its IC50 is 29.2 nM.

And the IC50 (second compound 1 µM)?
The IC50 was 25.2 nM.

What about the IC50 (second compound 3.16 µM) of the same molecule?
The IC50 was 21.1 nM.

What about the IC50 (second compound 10 µM) of the same molecule?
The IC50 was 12.4 nM.

What about the viability, T/C (second compound 0.1 µM, first compound 0.00949 µM) of the same molecule?
The viability, T/C was 89.1%.

And the viability, T/C (second compound 0.1 µM, first compound 0.03 µM)?
Its viability, T/C is 34.1%.

And the viability, T/C (second compound 0.1 µM, first compound 0.0949 µM)?
Its viability, T/C is 40%.

What about the viability, T/C (second compound 0.1 µM, first compound 0.3 µM) of the same molecule?
The viability, T/C was 32.2%.

What about the viability, T/C (second compound 0.1 µM, first compound 0.949 µM) of the same molecule?
The viability, T/C was 5.98%.

What about the viability, T/C (second compound 0.1 µM, first compound 3 µM) of the same molecule?
The viability, T/C was 1.51%.

What about the viability, T/C (second compound 0.316 µM, first compound 0.00949 µM) of the same molecule?
Its viability, T/C is 82.5%.

And the viability, T/C (second compound 0.316 µM, first compound 0.03 µM)?
The viability, T/C was 33.9%.

What about the viability, T/C (second compound 0.316 µM, first compound 0.0949 µM) of the same molecule?
Its viability, T/C is 40%.

And the viability, T/C (second compound 0.316 µM, first compound 0.3 µM)?
Its viability, T/C is 26.1%.

And the viability, T/C (second compound 0.316 µM, first compound 0.949 µM)?
Its viability, T/C is 4.21%.

And the viability, T/C (second compound 0.316 µM, first compound 3 µM)?
Its viability, T/C is 1.39%.

What about the viability, T/C (second compound 1 µM, first compound 0.00949 µM) of the same molecule?
Its viability, T/C is 76.1%.

What about the viability, T/C (second compound 1 µM, first compound 0.03 µM) of the same molecule?
Its viability, T/C is 31.1%.

And the viability, T/C (second compound 1 µM, first compound 0.0949 µM)?
The viability, T/C was 39%.

And the viability, T/C (second compound 1 µM, first compound 0.3 µM)?
The viability, T/C was 22.8%.

And the viability, T/C (second compound 1 µM, first compound 0.949 µM)?
The viability, T/C was 3.44%.

And the viability, T/C (second compound 1 µM, first compound 3 µM)?
The viability, T/C was 2.06%.

What about the viability, T/C (second compound 3.16 µM, first compound 0.00949 µM) of the same molecule?
Its viability, T/C is 68.8%.

What about the viability, T/C (second compound 3.16 µM, first compound 0.03 µM) of the same molecule?
Its viability, T/C is 28.7%.

What about the viability, T/C (second compound 3.16 µM, first compound 0.0949 µM) of the same molecule?
The viability, T/C was 40.2%.

What about the viability, T/C (second compound 3.16 µM, first compound 0.3 µM) of the same molecule?
The viability, T/C was 20%.

And the viability, T/C (second compound 3.16 µM, first compound 0.949 µM)?
Its viability, T/C is 3.6%.

And the viability, T/C (second compound 3.16 µM, first compound 3 µM)?
The viability, T/C was 2.13%.

What about the viability, T/C (second compound 10 µM, first compound 0.00949 µM) of the same molecule?
The viability, T/C was 57.5%.

What about the viability, T/C (second compound 10 µM, first compound 0.03 µM) of the same molecule?
The viability, T/C was 28.1%.

And the viability, T/C (second compound 10 µM, first compound 0.0949 µM)?
The viability, T/C was 34.1%.

And the viability, T/C (second compound 10 µM, first compound 0.3 µM)?
Its viability, T/C is 14.8%.

And the viability, T/C (second compound 10 µM, first compound 0.949 µM)?
Its viability, T/C is 2.21%.

And the viability, T/C (second compound 10 µM, first compound 3 µM)?
The viability, T/C was 1.35%.
